Assay results taken from patent publication US11247987B2, “Inhibiting ubiquitin specific peptidase 30” (FORMA Therapeutics, Inc., priority 2017, dated 2022).

target: T1, human recombinant USP30 (Homo sapiens, UniProt Q70CQ3); assay: Ubiquitin-Rhodamine 110 Assay for USP30 Activity (USP30 Inhibitor Biochemical Assay); conditions: 0.2 nM USP30, 25 nM Ub-Rh110, 30 min preincubation, 30 min at room temperature; read-out: USP30 potency range (USP30 biochemical IC50 assay, IC50 ranges)
T1 construct: purchased Boston Biochem E-582
T1 sequence (Q70CQ3 1-517): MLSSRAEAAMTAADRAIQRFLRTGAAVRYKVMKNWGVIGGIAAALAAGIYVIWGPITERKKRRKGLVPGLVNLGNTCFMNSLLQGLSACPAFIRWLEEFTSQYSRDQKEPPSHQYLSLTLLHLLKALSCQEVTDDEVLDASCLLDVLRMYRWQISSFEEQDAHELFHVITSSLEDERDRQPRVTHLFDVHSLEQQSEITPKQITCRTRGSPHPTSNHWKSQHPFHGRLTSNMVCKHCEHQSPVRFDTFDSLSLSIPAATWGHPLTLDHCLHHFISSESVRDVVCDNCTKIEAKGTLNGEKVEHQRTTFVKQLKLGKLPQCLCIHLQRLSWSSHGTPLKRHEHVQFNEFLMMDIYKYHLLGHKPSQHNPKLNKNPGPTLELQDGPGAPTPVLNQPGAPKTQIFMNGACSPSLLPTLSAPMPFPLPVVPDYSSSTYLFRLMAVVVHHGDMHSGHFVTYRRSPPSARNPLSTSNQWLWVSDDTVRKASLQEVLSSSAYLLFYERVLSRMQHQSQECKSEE
Method: Example A: Biochemical Assay: Ubiquitin-Rhodamine 110 Assay for USP30 Activity (USP30 Inhibitor Biochemical Assay)
The assay was performed in a final volume of 9 μL in assay buffer containing 20 mM Tris-HCl (pH 8.0, (1M Tris-HCl, pH 8.0 solution; Corning 46-031-CM)), 1 mM GSH (L-glutathione reduced, Sigma-Aldrich, G4251-100G), 0.03% BGG (0.22 μM filtered, Sigma, G7516-25G), and 0.01% Triton X-100 (Sigma, T9284-10L). Nanoliter quantities of 10-point, 3-fold serial dilution in DMSO were pre-dispensed into 1536 assay plates (Corning, #3724BC) for a final test concentration of 25 μM to 1.3 nM, top to lowest dose, respectively. Concentration and incubation times were optimized for the maximal signal-to-background while maintaining initial velocity conditions at a fixed substrate concentration. The final concentration of USP30 (human recombinant USP30, Boston Biochem, cat. # E-582) in the assay was 0.2 nM. […] 3 μL of 2×USP30 was added to assay plates (pre-stamped with compound), preincubated for 30 minutes and then treated with 3 μL of 2×Ub-Rh110. Plates were incubated for 30 minutes at room temperature before addition of 3 μL of stop solution (final concentration of 10 mM citric acid (Sigma, 251275-500G)). Fluorescence was read on the Envision (excitation at 485 nm and emission at 535 nm; Perkin Elmer) or on the PheraSTAR (excitation at 485 nm and emission at 535 nm; BMG Labtech).
For all assay formats data were reported as percent inhibition compared with control wells based on the following equation: % inh=1−((FLU−AveLow)/(AveHigh−AveLow)) where FLU=measured Fluorescence, AveLow=average Fluorescence of no enzyme control (n=16), and AveHigh=average Fluorescence of DMSO control (n=16). IC50 values were determined by curve fitting of the standard 4 parameter logistic fitting algorithm included in the Activity Base software package: IDBS XE Designer Model205. Data is fitted using the Levenburg Marquardt algorithm.

`N#CN[C@H]1C[C@H](C(=O)Nc2ncc([C@H]3CC4CCC3CC4)s2)C1` [Compound 1-38, (1r,3r)-N-{5-[(2S)-bicyclo[2.2.2]octan-2-yl]-1,3-thiazol-2-yl}-3-(cyanoamino)cyclo-butane-1-carboxamide] and `N#CN[C@H]1C[C@H](C(=O)Nc2ncc(C3CCCCC3)o2)C1` [Compound 1-53, (1r,3r)-3-(cyanoamino)-N-(5-cyclohexyl-1,3-oxazol-2-yl)cyclobutane-1-carboxamide] fall in the same range of IC50: 100 to 1000 nM for the first, 100 to 1000 nM for the second.

First: N#CN[C@H]1C[C@H](C(=O)Nc2cc(Cl)n(C3CCCCC3)n2)C1 [Compound 1-39, (1r,3r)-N-(5-chloro-1-cyclohexyl-1H-pyrazo1-3-yl)-3-(cyanoamino)cyclo-butane-1-carboxamide]
Second: N#CN[C@H]1C[C@H](C(=O)Nc2cc(Cl)cc(C3CCCCC3)c2)C1 [Compound 1-62, (1r,3r)-N-(3-chloro-5-cyclohexylphenyl)-3-(cyanoamino)cyclo-butane-1-carboxamide]
The IC50 of the first is higher: 100 to 1000 nM for the first, less than 100 nM for the second.

`N#CN[C@H]1C[C@H](C(=O)Nc2ncc(-c3cccc(C#N)c3)s2)C1` [Compound 1-40, (1r,3r)-3-(cyanoamino)-N-[5-(3-cyanophenyl)-1,3-thiazol-2-yl]cyclobutane-1-carboxamide] and `N#CN[C@H]1C[C@H](C(=O)Nc2cc(-c3cccc(C#N)c3)no2)C1` [Compound 1-51, (1r,3r)-3-(cyanoamino)-N-[3-(3-cyanophenyl)-1,2-oxazol-5-yl]cyclobutane-1-carboxamide] fall in the same range of IC50: 100 to 1000 nM for the first, 100 to 1000 nM for the second.

`N#CN[C@H]1C[C@H](C(=O)Nc2cc(-c3cccc(Cl)c3)no2)C1` [Compound 1-41, (1r,3r)-N-[3-(3-chlorophenyl)-1,2-oxazol-5-yl]-3-(cyanoamino)cyclo-butane-1-carboxamide] and `N#CN[C@H]1C[C@H](C(=O)Nc2cc(-c3cccc(Cl)c3)on2)C1` [Compound 1-43, (1r,3r)-N-[5-(3-chlorophenyl)-1,2-oxazol-3-yl]-3-(cyanoamino)cyclo-butane-1-carboxamide] fall in the same range of IC50: 100 to 1000 nM for the first, 100 to 1000 nM for the second.

Compared with `C[C@]1(C(=O)Nc2nc(Cl)c(C3CCCCC3)s2)C[C@H](NC#N)C1` [Compound 1-44, (1r,3s)-N-(4-chloro-5-cyclohexyl-1,3-thiazol-2-yl)-3-(cyanoamino)-1-methylcyclobutane-1-carboxamide], `N#CN[C@H]1C[C@](F)(C(=O)Nc2nc(Cl)c(C3CCCCC3)s2)C1` [Compound 1-47, (1s,3s)-N-(4-chloro-5-cyclohexyl-1,3-thiazol-2-yl)-3-(cyanoamino)-1-fluorocyclobutane-1-carboxamide] is higher in IC50: less than 100 nM for the first, 100 to 1000 nM for the second. The first is the more potent here.

`CN(c1cc(-c2cccc(Cl)c2)no1)C(=O)[C@H]1C[C@H](NC#N)C1` [Compound 1-45, (1r,3r)-N-[3-(3-chlorophenyl)-1,2-oxazol-5-yl]-3-(cyanoamino)-N-methylcyclobutane-1-carboxamide] and `CN(c1cc(-c2cccc(Cl)c2)on1)C(=O)[C@H]1C[C@H](NC#N)C1` [Compound 1-52, (1r,3r)-N-[5-(3-chlorophenyl)-1,2-oxazol-3-yl]-3-(cyanoamino)-N-methylcyclobutane-1-carboxamide] fall in the same range of IC50: 100 to 1000 nM for the first, 100 to 1000 nM for the second.

First: CCC1(C(=O)Nc2cnc(C3CCCCC3)s2)CC(NC#N)C1 (centres unmarked) [Compound 1-46, (1r,3s)-3-(cyanoamino)-N-(2-cyclohexyl-1,3-thiazol-5-yl)-1-ethylcyclobutane-1-carboxamide]
Second: N#CN[C@H]1C[C@@](F)(C(=O)Nc2nc(Cl)c(C3CCCCC3)s2)C1 [Compound 1-48, (1r,3r)-N-(4-chloro-5-cyclohexyl-1,3-thiazol-2-yl)-3-(cyanoamino)-1-fluorocyclobutane-1-carboxamide]
The IC50 of the first is higher: 100 to 1000 nM for the first, less than 100 nM for the second.

`CN(c1nc(Cl)c(C2CCCCC2)s1)C(=O)[C@H]1C[C@H](NC#N)C1` [Compound 1-49, (1r,3r)-N-(4-chloro-5-cyclohexyl-1,3-thiazol-2-yl)-3-(cyanoamino)-N-methylclycobutane-1-carboxamide] and `CN(c1nc(Cl)c(C2CCCCC2)s1)C(=O)[C@]1(F)C[C@H](NC#N)C1` [Compound 1-55, (1r,3r)-N-(4-chloro-5-cyclohexyl-1,3-thiazol-2-yl)-3-(cyanoamino)-1-fluoro-N-methylcyclobutane-1-carboxamide] cannot be ordered by IC50: less than 100 nM for the first, less than 100 nM for the second.

`CN(c1nc(Cl)c(C(C)(C)C)s1)C(=O)[C@H]1C[C@H](NC#N)C1` [Compound 1-50, (1r,3r)-N-(5-tert-butyl-4-chloro-1,3-thiazol-2-yl)-3-(cyanoamino)-N-methylcyclobutane-1-carboxamide] and `CN(c1nc(Cl)c(C(C)(C)C)s1)C(=O)[C@]1(F)C[C@H](NC#N)C1` [Compound 1-54, (1r,3r)-N-(5-tert-butyl-4-chloro-1,3-thiazol-2-yl)-3-(cyanoamino)-1-fluoro-N-methylcyclobutane-1-carboxamide] cannot be ordered by IC50: less than 100 nM for the first, less than 100 nM for the second.

`N#CN[C@H]1C[C@](F)(C(=O)Nc2cc(-c3ccc(C(F)(F)F)cc3)n[nH]2)C1` [Compound 1-56, (1s,3s)-3-(cyanoamino)-1-fluoro-N-{3-[4-(trifluoro-methyl)phenyl]-1H-pyrazol-5-yl}cyclobutane-1-carboxamide] and `N#CN[C@H]1C[C@@](F)(C(=O)Nc2cc(-c3ccc(C(F)(F)F)cc3)n[nH]2)C1` [Compound 1-57, (1r,3r)-3-(cyanoamino)-1-fluoro-N-{3-[4-(trifluoro-methyl)phenyl]-1H-pyrazol-5-yl}cyclobutane-1-carboxamide] fall in the same range of IC50: 100 to 1000 nM for the first, 100 to 1000 nM for the second.

`CN(c1nc(Cl)c(C2CCCCC2)s1)C(=O)[C@]1(F)C[C@@H](NC#N)C1` [Compound 1-58, (1s,3s)-N-(4-chloro-5-cyclohexyl-1,3-thiazol-2-yl)-3-(cyanoamino)-1-fluoro-N-methylcyclobutane-1-carboxamide] and `CC(C)(C)c1sc(NC(=O)[C@]2(F)C[C@@H](NC#N)C2)nc1Cl` [Compound 1-59, (1s,3s)-N-(5-tert-butyl-4-chloro-1,3-thiazol-2-yl)-3-(cyanoamino)-1-fluorocyclobutane-1-carboxamide] fall in the same range of IC50: 100 to 1000 nM for the first, 100 to 1000 nM for the second.

`CC(C)(C)c1sc(NC(=O)[C@]2(F)C[C@H](NC#N)C2)nc1Cl` [Compound 1-60, (1r,3r)-N-(5-tert-butyl-4-chloro-1,3-thiazol-2-yl)-3-(cyanoamino)-1-fluorocyclobutane-1-carboxamide] and `N#CN[C@H]1C[C@@](F)(C(=O)Nc2nc3cccc(OC4CCC4)c3s2)C1` [Compound 1-65, (1r,3r)-3-(cyanoamino)-N-(7-cyclobutoxy-1,3-benzothiazol-2-yl)-1-fluorocyclobutane-1-carboxamide] cannot be ordered by IC50: less than 100 nM for the first, less than 100 nM for the second.

`Cc1cc(NC(=O)[C@H]2C[C@H](NC#N)C2)cc(-c2ccccc2F)c1` [Compound 1-61, (1r,3r)-3-(cyanoamino)-N-[3-(2-fluorophenyl)-5-methylphenyl]cyclo-butane-1-carboxamide] and `N#CN[C@H]1C[C@H](C(=O)Nc2ccc(F)c(N3CCCCC3)c2)C1` [Compound 1-63, (1r,3r)-3-(cyanoamino)-N-[4-fluoro-3-(piperidin-1-yl)phenyl]cyclobutane-1-carboxamide] fall in the same range of IC50: 100 to 1000 nM for the first, 100 to 1000 nM for the second.

`N#CN[C@H]1C[C@H](C(=O)Nc2nc3cccc(OC4CCC4)c3s2)C1` [Compound 1-64, (1r,3r)-3-(cyanoamino)-N-(7-cyclobutoxy-1,3-benzothiazol-2-yl)cyclobutane-1-carboxamide] and `N#CN[C@H]1C[C@](F)(C(=O)Nc2nc3cccc(OC4CCC4)c3s2)C1` [Compound 1-66, (1s,3s)-3-(cyanoamino)-N-(7-cyclobutoxy-1,3-benzothiazol-2-yl)-1-fluorocyclobutane-1-carboxamide] fall in the same range of IC50: 100 to 1000 nM for the first, 100 to 1000 nM for the second.

With `CC1(C)[C@@H]2CC[C@@H](CNC(=O)[C@H]3C[C@H](NC#N)C3)[C@H]1C2` [Compound 1-67, (1r,3r)-3-(cyanoamino)-N-{[(1R,2R,5R)-6,6-dimethylbicyclo[3.1.1]heptan-2-yl]methyl}cyclo-butane-1-carboxamide] the IC50 was 100 to 1000 nM.
